Measurements as given in patent US20090104148A1, “Treatment and prevention of joint disease” (priority 2007, published 2009).
“Also recorded” adds a separate entry of the source.

Experiments:
Format in all cases: in vivo, Male Lewis rats
[1] = system: ACL-transection (ACLT) model; experiment: SF lavage lubricin levels by sandwich ELISA, ACL-transection model, Example 3; settings: etanercept-treated ACLT joints vs non-treated ACLT joints, 0.5 mg/kg subcutaneously days 1, 3, 5, 7, 9, 11, 13, 2 weeks following ACLT
Method: (§1) The following reagents and methods were used to evaluate inhibition of the effects of TNF-α by etanercept and the preservation of joint lubrication and decrease cartilage damage following an ACL injury. ACL-transection (ACLT) model and entanercept administration: Male Lewis rats 7-8 weeks were assigned to either an ACL-transection group (n=5), etanercept-treated ACL-transection group (n=5) or a sham-group (n=4). Etanercept was given subcutaneously at 0.5 mg/kg on days 1, 3, 5, 7, 9, 11, and 13 following ACLT. At 14 days following surgery, ACLT, contralateral (CL) and sham (S) joints were harvested and lavaged. Lavaging was performed by injecting 100 μl in the joint capsule, flexing and extending the joint for ten times and aspirating 50 μl of fluid. SF Lubricin levels: Lubricin levels were determined using sandwich ELISA employing a lubricin-specific monoclonal antibody, and peanut agglutinin (PNA). Ex-vivo joint μ: Articular joints' μ values were determined using modified Stanton pendulum (Elsaid K A et al, Arthritis Rheum 2007; 56:108-116). sGAG levels in SF lavages: Total sGAG levels were determined by Alcian blue binding assay.

[2] = system: ACL-transection model; experiment: Surface-associated lubricin coverage from 9G3-stained histological specimens, ACL-transection model, Example 4
Method: (§2) Etanercept was administered to animals, and condroprotection was evaluated using an ACL-transection model. Male Lewis rats 7-8 weeks were assigned to either an ACL-transection group (n=5), 2 etanercept-treated ACLT groups (n=12, 6 in each group) or a sham surgery group (n=4). Etanercept was given subcutaneously at 0.5 mg/kg on days 8, and 15 following transection (Treatment A) or on days 15 and 22 (Treatment B). At 28 days following transection, ACL-transected (ACLT), contralateral (CL) and sham joints were harvested and lavaged. Lavaging was performed by injecting 50 μl of normal saline in the joint capsule, flexing and extending the joint for ten times and then aspirating 30 μl of fluid.
(§3) SF lubricin levels were determined using a sandwich ELISA employing a lubricin-specific monoclonal antibody such as 9G3, and peanut agglutinin. Surface-associated lubricin coverage was calculated from 9G3-stained histological specimens. Quantitiation of lubricin staining intensity was calculated using Image Pro-Plus software (Media Cybernetics, MD, USA) with pre-determined threshold parameters and expressed as percentage of lubricin surface coverage. An average of lubricin surface coverage of the medial and lateral regions of femur and tibial cartilage surfaces was calculated.

[3] = system: ACL-transection model; experiment: Ex-vivo joint coefficient of friction (μ), modified Stanton pendulum, ACL-transection model, Example 4; settings: 28 days following transection
[4] = system: ACL-transection (ACLT) model; experiment: sGAG levels in SF lavages by Alcian blue binding assay, ACL-transection model, Example 3; settings: etanercept-treated vs non-treated joints; 0.5 mg/kg subcutaneously days 1-13; 2 weeks following ACLT
Method: as §1

[5] = system: ACL-transection model; experiment: SF lavage lubricin levels by sandwich ELISA, early vs late etanercept, ACL-transection model, Example 4; settings: 28 days following transection
Method: as §2, §3

[6] = system: ACL-transection (ACLT) model; experiment: Ex-vivo joint coefficient of friction (μ), modified Stanton pendulum, ACL-transection model, Example 3; settings: etanercept-treated ACLT joints vs non-treated ACLT joints; 0.5 mg/kg subcutaneously days 1-13; 2 weeks following ACLT
Method: as §1

Which “Lubricin SF lavage levels” value [1] does the source give for etanercept here?
Its value is “significantly (p<0.001) higher”.

What about the “Lubricin SF lavage levels” value ([1]; listed as ENBREL™) of the same substance?
Its value is “upregulation of lubricin”.

And the “Lubricin coverage in the CL joints” value ([2]; contralateral (CL) joints, treatments A and B vs other groups, 28 days following transection)?
The value was “comparable across the different groups”.

And the “lubricin layer in the superficial zone” value ([2]; inflamed rat joint following an ACL injury, ENBREL alone)?
The value was “reestablishes some of the lubricin layer in the superficial zone”.

And the “Lubricin coverage of articular surfaces (percentage surface coverage)” value ([2]; untreated ACLT joints compared to treatments A and B (0.5 mg/kg s.c.), 28 days following transection)?
The value was “significantly (p<0.01) lower than in treatment-A, treatment-B; also recorded: significantly (p<0.01) lower in the ACLT joints compared to treatments A, B”.

And the “mean coefficient of friction (μ)” value ([3]; Treatment A (0.5 mg/kg s.c. days 8 and 15), ACLT joints)?
Its value is 6.5*10^−4.

And the “mean coefficient of friction (μ)” value ([3]; Treatment A (0.5 mg/kg s.c. days 8 and 15), CL joints)?
The value was 4.7*10^−4.

What about the “mean coefficient of friction (μ)” value ([3]; Treatment B (0.5 mg/kg s.c. days 15 and 22), ACLT joints) of the same substance?
Its value is 6.6*10^−4.

What about the “mean coefficient of friction (μ)” value ([3]; Treatment B (0.5 mg/kg s.c. days 15 and 22), CL joints) of the same substance?
The value was 4.9*10^−4.

What about the “joints' μ values, treatments A and B vs untreated ACLT and sham joints” value ([3]; treatments A and B) of the same substance?
The value was “lower than the μ values of ACLT joints”.

What about the “sGAG SF lavage levels” value [4] of the same substance?
The value was “significantly (p<0.001) lower”.

What about the “SF lavage lubricin levels” value ([5]; Treatment A (0.5 mg/kg s.c. days 8 and 15), ACLT joints, vs ACLT control and treatment B) of the same substance?
Its value is “significantly (p<0.01) higher”.

And the “SF lavage lubricin levels in CL joints” value ([5]; contralateral (CL) joints, treatments A and B vs other groups)?
Its value is “comparable across the different groups”.

And the “ex-vivo joint coefficient of friction (μ)” value [6]?
The value was “significantly (p=0.021) lower”.
